Data as given in the supplement of paper PMC10307832.

Columns and labels:
Experiment in all cases: relative viability (nuclei count vs DMSO), 5 days (fraction); higher = more cells survive
Palbociclib + Phenformin = compound: CC(=O)c1c(C)c2cnc(Nc3ccc(N4CCNCC4)cn3)nc2n(C2CCCC2)c1=O [Palbociclib] + N=C(N)NC(=N)NCCc1ccccc1 [Phenformin] (partner 250 µM)
Procedure, shortened: (§1)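 For relative viability, nuclei counts in treated wells were divided by those in vehicle wells. Lung cancer cell lines had been pin-tool dosed in 1536-well plates the day after seeding and cultured for 5 days, then fixed and stained in one step (final 0.05% Triton X-100, 1% formaldehyde, 1 ug/ml Hoechst) and imaged at 4×. Doses were one drug alone or a fixed anchor-drug dose plus five library-drug doses (not always all listed) in √10 steps, and values are duplicate-plate medians.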

Palbociclib + Tozasertib = compound: CC(=O)c1c(C)c2cnc(Nc3ccc(N4CCNCC4)cn3)nc2n(C2CCCC2)c1=O [Palbociclib] + Cc1cc(Nc2cc(N3CCN(C)CC3)nc(Sc3ccc(NC(=O)C4CC4)cc3)n2)n[nH]1 [Tozasertib] (partner 0.1 µM)
Procedure, shortened: as §1

Palbociclib + Olaparib = compound: CC(=O)c1c(C)c2cnc(Nc3ccc(N4CCNCC4)cn3)nc2n(C2CCCC2)c1=O [Palbociclib] + O=C(c1cc(Cc2n[nH]c(=O)c3ccccc23)ccc1F)N1CCN(C(=O)C2CC2)CC1 [Olaparib] (partner 8 µM)
Procedure, shortened: as §1

Palbociclib + Foretinib = compound: CC(=O)c1c(C)c2cnc(Nc3ccc(N4CCNCC4)cn3)nc2n(C2CCCC2)c1=O [Palbociclib] + COc1cc2c(Oc3ccc(NC(=O)C4(C(=O)Nc5ccc(F)cc5)CC4)cc3F)ccnc2cc1OCCCN1CCOCC1 [Foretinib] (partner 0.25 µM)
Procedure, shortened: as §1

Palbociclib + Decitabine = compound: CC(=O)c1c(C)c2cnc(Nc3ccc(N4CCNCC4)cn3)nc2n(C2CCCC2)c1=O [Palbociclib] + Nc1ncn([C@H]2C[C@H](O)[C@@H](CO)O2)c(=O)n1 [Decitabine] (partner 2 µM)
Procedure, shortened: as §1

Palbociclib + Trametinib = compound: CC(=O)c1c(C)c2cnc(Nc3ccc(N4CCNCC4)cn3)nc2n(C2CCCC2)c1=O [Palbociclib] + CC(=O)Nc1cccc(-n2c(=O)n(C3CC3)c(=O)c3c(Nc4ccc(I)cc4F)n(C)c(=O)c(C)c32)c1 [Trametinib] (partner 0.02 µM)
Procedure, shortened: as §1

Palbociclib + OSI-027 = compound: CC(=O)c1c(C)c2cnc(Nc3ccc(N4CCNCC4)cn3)nc2n(C2CCCC2)c1=O [Palbociclib] + COc1cccc2cc(-c3nc([C@H]4CC[C@H](C(=O)O)CC4)n4ncnc(N)c34)[nH]c12 [OSI-027] (partner 0.5 µM)
Procedure, shortened: as §1

Palbociclib + Pemetrexed = compound: CC(=O)c1c(C)c2cnc(Nc3ccc(N4CCNCC4)cn3)nc2n(C2CCCC2)c1=O [Palbociclib] + Nc1nc2[nH]cc(CCc3ccc(C(=O)N[C@@H](CCC(=O)O)C(=O)O)cc3)c2c(=O)[nH]1 [Pemetrexed] (partner 0.2 µM)
Procedure, shortened: as §1

Palbociclib + AZD7762 = compound: CC(=O)c1c(C)c2cnc(Nc3ccc(N4CCNCC4)cn3)nc2n(C2CCCC2)c1=O [Palbociclib] + NC(=O)Nc1cc(-c2cccc(F)c2)sc1C(=O)N[C@H]1CCCNC1 [AZD7762] (partner 0.2 µM)
Procedure, shortened: as §1

Palbociclib + Luminespib = compound: CC(=O)c1c(C)c2cnc(Nc3ccc(N4CCNCC4)cn3)nc2n(C2CCCC2)c1=O [Palbociclib] + CCNC(=O)c1noc(-c2cc(C(C)C)c(O)cc2O)c1-c1ccc(CN2CCOCC2)cc1 [Luminespib] (partner 0.01 µM)
Procedure, shortened: as §1

Palbociclib + Dasatinib = compound: CC(=O)c1c(C)c2cnc(Nc3ccc(N4CCNCC4)cn3)nc2n(C2CCCC2)c1=O [Palbociclib] + Cc1nc(Nc2ncc(C(=O)Nc3c(C)cccc3Cl)s2)cc(N2CCN(CCO)CC2)n1 [Dasatinib] (partner 0.075 µM)
Procedure, shortened: as §1

Palbociclib + Vorinostat = compound: CC(=O)c1c(C)c2cnc(Nc3ccc(N4CCNCC4)cn3)nc2n(C2CCCC2)c1=O [Palbociclib] + O=C(CCCCCCC(=O)Nc1ccccc1)NO [Vorinostat] (partner 1 µM)
Procedure, shortened: as §1

Palbociclib = compound: CC(=O)c1c(C)c2cnc(Nc3ccc(N4CCNCC4)cn3)nc2n(C2CCCC2)c1=O [Palbociclib]
Procedure, shortened: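 Cells of lung cancer lines were placed in 1536-well plates and kept overnight at 37 °C. Pinning then delivered five library-drug doses (not always all listed), spaced by √10, onto plates anchored with vehicle, and the cells were left 5 days without changing medium. One step fixed, permeabilised and stained them with Hoechst, and MetaXpress counted nuclei in 4× images. Viability, as a median over plates, is treated-well nuclei divided by vehicle-well nuclei, with acceptance only at control CV below 25% and at least one doubling.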

SW 900 showed a relative viability (Palbociclib + Phenformin; first compound 0.01 µM) of 0.632, a relative viability (Palbociclib + Phenformin; first compound 0.1 µM) of 0.435 and a relative viability (Palbociclib + Phenformin; first compound 0.3162 µM) of 0.448. It also gave a relative viability (Palbociclib + Phenformin; first compound 1 µM) of 0.298, a relative viability (Palbociclib + Tozasertib; first compound 0.01 µM) of 0.557 and a relative viability (Palbociclib + Tozasertib; first compound 0.1 µM) of 0.461. The relative viability (Palbociclib + Tozasertib; first compound 0.3162 µM) was 0.417, the relative viability (Palbociclib + Tozasertib; first compound 1 µM) was 0.506 and the relative viability (Palbociclib + Olaparib; first compound 0.01 µM) was 0.914. For the same cell line, the relative viability (Palbociclib + Olaparib; first compound 0.1 µM) was 0.975, the relative viability (Palbociclib + Olaparib; first compound 0.3162 µM) was 0.865 and the relative viability (Palbociclib + Olaparib; first compound 1 µM) was 0.725. It also gave a relative viability (Palbociclib + Foretinib; first compound 0.01 µM) of 0.902, a relative viability (Palbociclib + Foretinib; first compound 0.1 µM) of 0.844 and a relative viability (Palbociclib + Foretinib; first compound 0.3162 µM) of 0.649. It also gave a relative viability (Palbociclib + Foretinib; first compound 1 µM) of 0.625, a relative viability (Palbociclib + Decitabine; first compound 0.01 µM) of 0.393 and a relative viability (Palbociclib + Decitabine; first compound 0.1 µM) of 0.475. It also gave a relative viability (Palbociclib + Decitabine; first compound 0.3162 µM) of 0.478, a relative viability (Palbociclib + Decitabine; first compound 1 µM) of 0.484 and a relative viability (Palbociclib + Trametinib; first compound 0.01 µM) of 0.828. It also gave a relative viability (Palbociclib + Trametinib; first compound 0.1 µM) of 1.12, a relative viability (Palbociclib + Trametinib; first compound 0.3162 µM) of 0.616 and a relative viability (Palbociclib + Trametinib; first compound 1 µM) of 0.509. It also gave a relative viability (Palbociclib + OSI-027; first compound 0.01 µM) of 0.582, a relative viability (Palbociclib + OSI-027; first compound 0.1 µM) of 0.399 and a relative viability (Palbociclib + OSI-027; first compound 0.3162 µM) of 0.322. It also gave a relative viability (Palbociclib + OSI-027; first compound 1 µM) of 0.358, a relative viability (Palbociclib + Pemetrexed; first compound 0.01 µM) of 0.46 and a relative viability (Palbociclib + Pemetrexed; first compound 0.1 µM) of 0.528. For the same cell line, the relative viability (Palbociclib + Pemetrexed; first compound 0.3162 µM) was 0.51, the relative viability (Palbociclib + Pemetrexed; first compound 1 µM) was 0.422 and the relative viability (Palbociclib + AZD7762; first compound 0.01 µM) was 0.67. The relative viability (Palbociclib + AZD7762; first compound 0.1 µM) was 0.641, the relative viability (Palbociclib + AZD7762; first compound 0.3162 µM) was 0.644 and the relative viability (Palbociclib + AZD7762; first compound 1 µM) was 0.46. For the same cell line, the relative viability (Palbociclib + Luminespib; first compound 0.01 µM) was 0.198, the relative viability (Palbociclib + Luminespib; first compound 0.1 µM) was 0.163 and the relative viability (Palbociclib + Luminespib; first compound 0.3162 µM) was 0.182. For the same cell line, the relative viability (Palbociclib + Luminespib; first compound 1 µM) was 0.171, the relative viability (Palbociclib + Dasatinib; first compound 0.01 µM) was 0.641 and the relative viability (Palbociclib + Dasatinib; first compound 0.1 µM) was 0.543. The relative viability (Palbociclib + Dasatinib; first compound 0.3162 µM) was 0.479, the relative viability (Palbociclib + Dasatinib; first compound 1 µM) was 0.46 and the relative viability (Palbociclib + Vorinostat; first compound 0.01 µM) was 0.524. For the same cell line, the relative viability (Palbociclib + Vorinostat; first compound 0.1 µM) was 0.385, the relative viability (Palbociclib + Vorinostat; first compound 0.3162 µM) was 0.415 and the relative viability (Palbociclib + Vorinostat; first compound 1 µM) was 0.389. The relative viability (Palbociclib; 0.01 µM) was 1.01, the relative viability (Palbociclib; 0.1 µM) was 0.768 and the relative viability (Palbociclib; 0.3162 µM) was 0.565. It also gave a relative viability (Palbociclib; 0.5 µM, anchor plate) of 0.565 and a relative viability (Palbociclib; 1 µM) of 0.541.
